According to patent publication US10358469B2, “Methods and pharmaceutical compositions for the treatment of cancer” (INSERM (INSTITUT NATIONAL DE LA SANTÉ ET DE LA RECHERCHE …, priority 2014, dated 2019):

Assays:
[1] = test system: normal cells (HaCat, NCTC and human primary fibroblasts); assay: Cell viability (MTT) of normal cells; type: cell-based; settings: increasing concentrations, 24 hours, FIG. 1B
[2] = test system: SeAx cells; assay: Propidium iodide (PI) uptake, flow cytometry, SeAx cells; type: cell-based; settings: 4 μM
Procedure: (A) SeAx or HaCat cells cultured in the absence of 10% FBS were left untreated or treated with 4 μM or 10 μM, respectively, of the Antp-AAC-11-LZ (363-399) peptide for the indicated durations. Cells were then analyzed by flow cytometry for PI staining. The results represent the mean number of PI-positive cells±S.D. from at least three independent experiments. (B) A549 and HaCat cells were plated at a densities of 4.5×10^3 in 96 well plates (100 μL total volume per well) and allowed to attach overnight in a 37° C. incubator (5% CO2). […] Lactate dehydrogenase (LDH) activity released in the culture medium was then assessed and data expressed as a percentage of the maximal level (Max) of LDH activity determined after total cell lysis±S.D. from at least three independent experiments.
(A) SeAx cultured in the absence of 10% FBS were left untreated or treated with 4 μM of the indicated Antp-AAC-11-LZ peptides for various times. Cells were then analyzed by flow cytometry for PI staining. […] Lactate dehydrogenase (LDH) activity released in the culture medium was then assessed and data expressed as a percentage of the maximal level (Max) of LDH activity determined after total cell lysis±S.D.
Cell death was evaluated upon staining with propidium iodide and flow cytometry analysis. […]

[3] = test system: human triple-negative breast cancer xenograft PDX01; assay: Triple-negative breast cancer patient-derived xenograft PDX01 in nude mice; type: in vivo; settings: 2.4 mg/kg i.p., 7 daily injections, FIG. 8B
Procedure: Breast cancer fragments were obtained from patients at the time of surgery, with informed written patient consent. After imaging-guided human tumor biopsies had been performed, fragments of 30 to 60 mm^3 were subcutaneously grafted in 6-week-old NMRI-nude mice (Centre-Elevage-Janvier, France), under xylasin (10 mg/kg)/ketamin (100 mg/kg) anesthesia. Mice were maintained in specific pathogen-free animal housing (Institut Universitaire d'Hematologie) and received estrogen (17 mg/mL) diluted in drinking water. Xenografts were characterized and subsequently subcutaneously transplanted from mouse to mouse. […] Two human triple-negative breast cancer (HBC) xenografts models were used in our experiments (PDX01 and PDX02). […] Following transplantation (n=6 per model) tumor growth was assessed by measuring tumor size in two dimension using a Vernier caliper. Tumor volume was calculated using the formula [3.14×long axis×short axis×short axis]/6 (Kjonniksen et al., 1989). […] Mice were weighted and the tumor size was measured by a caliper and recorded daily. Fourteen days after beginning of the treatment mice were sacrificed. The tumors, kidney, lungs, heart, liver, pancreas and spleen were taken and fixed. Paraffin-embedded sections were prepared and stained with hematoxylin and eosin for histological analysis.

Ac-RQIKIWFKKQNRRMKWKKAKLNAEKLKDFKIRLQYFARGLQVYIRQLRLALQGKT-NH2 [Antp-AAC-11-LZ (363-399)]
toxicity in normal cells [1]: much reduced toxicity | PI positive cells ([2]; 5 minutes, absence of 10% FBS): 90% | PI positive cells, course after 5 minutes ([2]; up to 60 minutes): remained unchanged | tumor size versus vehicle [3]: significantly smaller tumors
